Drawing on ChEMBL document CHEMBL1134405 (J Med Chem, 2001), this text covers IC50 and pA2 for 1 compound.

One experiment addresses Glucagon receptor (Rattus norvegicus, UniProt P30082). Put plainly: Compound was evaluated for its ability to displace radiolabeled glucagon (inactive up to 100 uM).
Experiment [1] can be described thus: pA2 value, a dose-response plot was obtained by determining the response when the concentration of glucagon was varied while the concentration was kept same.

Sequence of Glucagon receptor (P30082 whole entry): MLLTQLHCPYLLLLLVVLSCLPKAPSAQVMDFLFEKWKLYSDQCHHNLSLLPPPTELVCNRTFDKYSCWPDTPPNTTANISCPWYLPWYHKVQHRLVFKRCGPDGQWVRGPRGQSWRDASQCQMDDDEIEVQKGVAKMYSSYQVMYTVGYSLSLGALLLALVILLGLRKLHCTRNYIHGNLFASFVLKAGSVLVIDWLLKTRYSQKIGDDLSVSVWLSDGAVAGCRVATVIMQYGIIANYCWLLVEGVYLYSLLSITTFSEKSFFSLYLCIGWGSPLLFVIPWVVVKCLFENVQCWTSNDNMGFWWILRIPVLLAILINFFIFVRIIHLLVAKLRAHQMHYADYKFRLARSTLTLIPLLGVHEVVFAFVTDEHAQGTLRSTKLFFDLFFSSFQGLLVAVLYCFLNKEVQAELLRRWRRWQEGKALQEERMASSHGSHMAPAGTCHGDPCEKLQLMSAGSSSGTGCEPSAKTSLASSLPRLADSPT

What is called IC50 is the concentration at which inhibition is half-maximal. Low values mean inhibition by little substance, high ones a need for much substance. In general, pA2 refers to the negative logarithm of the molar antagonist concentration that doubles the agonist concentration needed for the same response. For `CSCC[C@H](NC(=O)[C@H](CC(C)C)NC(=O)[C@H](Cc1c[nH]c2ccccc12)NC(=O)[C@H](CCC(N)=O)NC(=O)[C@@H](NC(=O)[C@H](Cc1ccccc1)NC(=O)[C@H](CC(=O)O)NC(=O)[C@H](CCC(N)=O)NC(=O)[C@H](C)NC(=O)[C@H](CCCN=C(N)N)NC(=O)[C@H](CCCN=C(N)N)NC(=O)[C@H](CO)NC(=O)[C@H](CC(=O)O)NC(=O)[C@H](CC(C)C)NC(=O)[C@H](Cc1ccc(O)cc1)NC(=O)[C@H](CCCCN=C(N)N)NC(=O)[C@H](CO)NC(=O)[C@H](Cc1ccc(O)cc1)NC(=O)[C@H](CC(=O)O)NC(=O)[C@H](CO)NC(=O)[C@@H](NC(=O)[C@H](Cc1ccccc1)NC(=O)[C@@H](NC(=O)CNC(=O)[C@H](CCC(N)=O)NC(=O)[C@H](CO)NC(=O)[C@H](Cc1c[nH]cn1)Nc1c([N+](=O)[O-])cc([N+](=O)[O-])cc1[N+](=O)[O-])[C@@H](C)O)[C@@H](C)O)C(C)C)C(=O)N[C@@H](CC(N)=O)C(=O)N[C@H](C(=O)O)[C@@H](C)O`, the IC50 on Glucagon receptor was found to be 15 nM. The compound also gave a pA2 in experiment [1] of 8.16.
